Earlier results in patent US12616707B2, “Compositions and methods for improving gut health” (Plexus Worldwide, LLC., priority 2017, dated 2026).

Tests used:
[1] = tested on: high-fat fed mice
[2] = tested on: DSS-induced colitis model; conditions: chlorogenic acid supplementation
[3] = 0.02% (wt/wt) in high-fat diet vs high-fat control group

In the case of `O=C(/C=C/c1ccc(O)c(O)c1)O[C@@H]1C[C@](O)(C(=O)O)C[C@@H](O)[C@H]1O` [chlorogenic acid], the Body weight [1, 3] is given as “significantly lowered”, the Plasma insulin levels [1, 3] is given as “significantly lowered” and the Plasma leptin levels [1, 3] is given as “significantly lowered”. The Visceral fat mass [1, 3] was “significantly lowered”, the “Cholesterol concentrations (plasma, adipose tissue and heart)” value ([1]; high-fat diet) was “lowered” and the “Triglyceride concentrations (plasma, liver and heart)” value ([1]; high-fat diet) was “lowered”. For the same compound, the IL-1β expression [2] was “significant suppression”.
